Source: patent US7205298B2, “Substituted triazine kinase inhibitors” (Janssen Pharmaceutica N.V., priority 2002, dated 2007)

Columns and labels:
PKC γ = target: T1, PKC γ (Homo sapiens, UniProt P05129); experiment: Kinase selectivity assay PKC γ; type: biochemical
T1 construct: purchased BIOMOL SE-143; host or cells: insect cells
Protocol: (§1) Assays to test compound inhibition of other kinases were preformed using methods that measure the amount of phosphorylation of a biotinylated peptide substrate. Biotinylated peptide substrates were selected from the literature as appropriate for the enzyme being evaluated. The general procedure used to assay for kinase activity is as follows: a kinase reaction mix was prepared in 50 mM Tris-HCl pH=8, 10 mM MgCl2, 0.1 mM Na3VO4, 1 mM DTT, 10 μM ATP, 0.25–1 μM biotinylated peptide substrate, 0.2–0.8 μCuries per well ^33P-γ-ATP (2000–3000 Ci/mmol). Assay conditions vary slightly for each protein kinase, for example, insulin receptor kinase requires 10 mM MnCl2 for activity and Calmodulin-dependent protein kinase requires calmodulin and 2 mM CaCl2. The reaction mixture was dispensed into the wells of a streptavidin coated Flashplate and 1 μL test compound in 100% DMSO was added to a 100 μL reaction volume resulting in a final concentration of 1% DMSO in the reaction. Enzyme was diluted in 50 mM Tris-HCl pH=8.0, 0.1% BSA and added to each well. The reaction was incubated for one hour at 30° C. in the presence of a test compound. […] The plate was read on a scintillation counter to determine ^33P-γ-ATP incorporated into the immobilized peptide substrate. […] A maximum and minimum signal for the assay was determined on each plate. […]

CDK4 = CDK4 (Homo sapiens, UniProt P11802); experiment: Kinase selectivity assay CDK4; type: biochemical
Protocol: as §1

[1] = test system: PC-3 prostate adenocarcinoma; experiment: Inhibition of cell proliferation, 14C-thymidine incorporation, PC-3; type: cell-based; settings: Homo sapiens
Protocol: The ability of a test compound to inhibit the proliferation of cell growth was determined by measuring incorporation of ^14C-labelled thymidine into newly synthesized DNA within the cells. This method was used on cell lines derived from carcinomas originating from several tissues such as HeLa cervical adenocarcinoma (American Type Culture Collection (ATCC), Virginia, Cat. #CCL-2), HCT-116 colon carcinoma (CCL-247), MDA-MB-231 (Xenogen Corp.), PC-3 prostate adenocarcinoma (ATCC CRL-1435) and A375 malignant melanoma (ATCC CRL-1619).
Using this method, the effect of a compound on cell growth of cells with many different phenotypes can be determined. Cells were trypsinized and counted and 3000–8000 cells were added to each well of a 96-well CytoStar tissue culture treated scintillating microplate (Amersham #RPNQ0160) in complete medium in a volume of 100 μl. Cells were incubated for 24 hours in complete medium at 37° C. in an atmosphere containing 5% CO2. 1 μL of test compound in 100% DMSO was then added to the wells of the plate. DMSO only was added to control wells. Cells were incubated for 24 more hours in complete medium at 37° C. in an atmosphere containing 5% CO2. […] The degree of methyl ^14C-thymidine incorporation was quantified on a Packard Top Count.

Sequence of CDK4 (P11802 whole entry, species assumed): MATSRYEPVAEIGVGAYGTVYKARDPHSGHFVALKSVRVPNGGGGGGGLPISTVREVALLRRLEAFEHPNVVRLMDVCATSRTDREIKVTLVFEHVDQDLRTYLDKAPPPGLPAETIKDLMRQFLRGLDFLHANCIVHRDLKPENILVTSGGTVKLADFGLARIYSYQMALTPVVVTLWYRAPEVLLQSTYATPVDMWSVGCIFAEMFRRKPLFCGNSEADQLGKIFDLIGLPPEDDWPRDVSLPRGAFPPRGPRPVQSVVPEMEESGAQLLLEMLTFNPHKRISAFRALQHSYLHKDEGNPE
Sequence of CDK4 (P24385 whole entry partner, species assumed): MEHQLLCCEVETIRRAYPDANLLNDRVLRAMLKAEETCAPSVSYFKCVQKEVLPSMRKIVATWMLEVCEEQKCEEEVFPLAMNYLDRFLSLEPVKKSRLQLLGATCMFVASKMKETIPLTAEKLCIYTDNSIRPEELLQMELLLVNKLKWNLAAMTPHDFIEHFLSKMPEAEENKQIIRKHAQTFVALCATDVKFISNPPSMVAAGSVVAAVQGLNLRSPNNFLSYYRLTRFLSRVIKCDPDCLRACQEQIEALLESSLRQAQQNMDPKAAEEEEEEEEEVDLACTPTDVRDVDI

IC50 (PKC γ): > 100000 nM
IC50 (CDK4): 1350 nM
IC50 [1]: 259 nM
SMILES: OCCCNc1cncc(-c2ncnc(Nc3cccc(Cl)c3)n2)c1 [Compound 1, 3-((5-(4-((3-chlorophenyl)amino)-1,3,5-triazin-2-yl)-3-pyridinyl)amino)-1-propanol]
